Data on twelve compounds can be found in PubChem BioAssay (NCI).

What all share (assay): inhibition of tumour cell growth, NCI panel, 48 h
The test system of experiment [1] is SK-MEL-5 melanoma.
Experiment [2] has as its system UO-31 renal.
Experiment [3] concerns RXF 393 renal.
Experiment [4] relates to A498 renal.
The subject of experiment [5] is XF 498 CNS.
In experiment [6] the test system is SNB-78 CNS.
For experiment [7], the system named is ACHN renal.
Experiment [8] relates to A549 NSCLC.
The subject of experiment [9] is SN12C renal.
Experiment [10] deals with KM20L2 colon.
The test system of experiment [11] is DU-145 prostate.

“And” between values parts separate entries of the source, which are not always exact repeats. Identical values can stand only once.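 Values below derive from 48-hour exposures of cells grown in 96-well plates, with endpoints linearly interpolated between the two concentrations bracketing the appropriate inhibition level. GI50 = concentration required for 50% inhibition of growth. TGI denotes the concentration required for complete inhibition of growth.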

As to `N#C/C(=C\c1cc(OCc2ccccc2)c(OCc2ccccc2)cn1)C(N)=O`, the TGI in experiment [1], in experiment [2], in experiment [3], in experiment [4], in experiment [5] and in experiment [6] was over 100 µM throughout. In addition, the TGI in [7], in [8], in experiment [9] and in [10] was over 100 µM in each case.
With `O=C1NC2=C(CCCCC/C2=N\O)C12CCCCCC2`, the TGI in [1], in [2], in [3], in [4], in [5] and in experiment [6] was over 100 µM in each case. Also, the TGI in [7], in experiment [8] and in experiment [9] was over 100 µM throughout.
`C[C@]12Cc3cn[nH]c3C(=O)C1CC[C@@H]1C2CC[C@@]2(C)C1CC[C@@H]2O` (stereo partly specified): the TGI in experiment [1], in [2], in [3], in experiment [4], in experiment [5] and in experiment [6] was over 100 µM each time. For the same compound, the TGI in [7], in experiment [8], in experiment [9] and in experiment [10] was over 100 µM throughout.
Consider `O=C1/C(=C\c2ccccc2)CN(C(=O)CCN2CCCCC2)C/C1=C/c1ccccc1`, for which the TGI in experiment [1] worked out at 3.3 µM; in experiment [2] it was 4.56 µM; in [3], 3.53 µM; in experiment [4], 7.43 µM; in experiment [5] it was 3.84 µM; in experiment [6], 10.6 µM. For the same compound, the TGI was 4.29 µM in experiment [7]; 10.9 µM in experiment [8]; 2.48 µM in experiment [9]; 2.97 µM in experiment [10]; 17.9 µM in experiment [11].
As to `CCc1cccc(C)c1NC(=O)CCc1nc(=S)[nH][nH]1`, the TGI in experiment [1], in experiment [2], in experiment [3], in experiment [5], in [6] and in experiment [7] was over 100 µM in each case. Also, the TGI in experiment [8], in experiment [9] and in experiment [10] was over 100 µM in each case.
As to `Cc1nc(N)nc(CCC(=O)Nc2cccc(C(F)(F)F)c2)c1-c1ccc(Cl)cc1`, the TGI in experiment [1], in [2], in experiment [3], in experiment [4], in experiment [5] and in experiment [6] was over 100 µM throughout. For the same compound, the TGI in [7], in experiment [8], in experiment [9] and in [10] was over 100 µM each time.
As for `COC1N(C2CC(O)C(CO)O2)C(=O)NC(=O)C1(F)Br` (stereo unspecified), the GI50 was 38.2 µM in experiment [1]; over 50 µM in [2]; 37.2 µM in [3]; 821 nM in [4]; 23.9 µM in experiment [7]; 3.22 µM in experiment [8]. The GI50 in experiment [9] was 15.6 µM. In addition, the TGI in experiment [1] is 50 µM and > 89.7 µM; in [2], over 100 µM; in experiment [3] it was 50 µM and > 100 µM; in experiment [4], 50 µM and > 65 µM; in experiment [5], 50 µM; in [6], over 50 µM. Further, the TGI is 50 µM and > 100 µM in experiment [7]; 50 µM and > 100 µM in [8]; 50 µM and > 100 µM in [9]; 50 µM in [10]; over 100 µM in experiment [11].
With `N#CC(C(=O)C(=O)Nc1c(Cl)cccc1Cl)c1ccccc1` (stereo unspecified), the GI50 in experiment [1] is over 100 µM; in experiment [2], over 100 µM; in experiment [4] it was over 100000 nM; in [6], over 100 µM; in experiment [7] it was over 100 µM; in [8] it was over 100 µM. The GI50 in experiment [9] is over 100 µM. The TGI in [1], in experiment [2], in experiment [4], in experiment [5], in experiment [6] and in experiment [7] was over 100 µM each time. Further, the TGI in experiment [8] and in experiment [9] was over 100 µM in each case.
For the compound `Cc1ccc(S(=O)(=O)OCC/C(=C\[Si](C)(C)C)c2ccccc2)cc1`, the TGI in experiment [1], in [2], in experiment [3], in experiment [4], in experiment [5] and in experiment [7] was over 100 µM each time. The TGI in experiment [8], in experiment [9] and in experiment [10] was over 100 µM in each case.
With `COc1cc([C@@H]2c3cc4c(cc3[C@@H](NC(=O)c3ccc(C#N)cc3)C3COC(=O)[C@@H]32)OCO4)cc(OC)c1O` (stereo partly specified), the TGI stood at 15.3 µM in experiment [2]; 9.92 µM in [3]; 3.79 µM in experiment [4]; 58.2 µM in [6]; 1.47 µM in [7]; 1.64 µM in [8]. Besides, the TGI in experiment [9] is 1.51 µM; in experiment [10] it was 4.51 µM.
For `OCc1cc2c(cn1)[nH]c1ccc(NCc3ccccc3)cc12`, the TGI is 25.6 µM in experiment [1]; 82.7 µM in [2]; 78.5 µM in experiment [3]; 71.7 µM in [4]; 59.2 µM in experiment [5]; over 100 µM in experiment [7]. For the same compound, the TGI is over 100 µM in experiment [8], over 100 µM in experiment [9] and 55.6 µM in experiment [10].
As for `COC(=O)C1C(C(=O)OC)C2C(=O)C3C(C(=O)OC)C(C(=O)OC)C3C(=O)C12` (stereo unspecified), the TGI in experiment [3], in experiment [4], in [5], in experiment [6], in experiment [7] and in [8] was over 100 µM each time. Besides, the TGI in experiment [9] and in experiment [10] was over 100 µM in each case.
